Measurements reported in patent US20130052268A1, “COMPOSITIONS AND METHODS FOR TREATMENT OF PARKINSON'S DISEASE” (THE MCLEAN HOSPITAL CORPORATION, priority 2010, published 2013).

Tests used:
Type in all cases: cell-based, mouse
SHH signaling [1] = experiment: Wnt1 induction of Lmx1a in the presence of the SHH signaling inhibitor cyclopamine, qPCR at NP stage; conditions: Wnt1-retrovirus transduced NP cells, 1 mM cyclopamine for 3 days
Description: FIG. 10A-B show interaction between SHH and other factors. […] J1 ES-derived NP cells were transduced with empty- or Wnt1-retrovirus and cultured in the absence or presence of […] cyclopamine for 3 days, and analyzed by qPCR at NP stage. […] NP stage cells were treated with 500 ng/ml of SHH or […] Cyclopamine for 6 hours and analyzed by qPCR.
(§1) It was previously shown that SHH treatment could ventralize chick intermediate midbrain explants, accompanied by induction of Lmx1a and other ventral midbrain phenotype (Andersson et al., 2006b). […] ES-derived NP cells were treated with 500 ng/ml SHH or 1 μM cyclopamine for 6 hours and analyzed by qPCR.

SHH signaling [2] = experiment: Acute treatment of ES-derived NP cells with SHH or cyclopamine, qPCR; conditions: 6 hours
Description: For all other samples, total RNA was prepared using TriReagent (Sigma, St. Louis, Mo.) followed by further purification using RNeasy mini kit (Qiagen, Valencia, Calif.). For RT-PCR analysis, 2 ? g of RNA were transcribed into cDNA with the SuperScript™ II RT (Invitrogen, Carlsbad, Calif.) and oligo (dT) primers. For quantitative analysis of the expression level of mRNAs, real-time PCR analyses using SYBR green I were performed using a DNA engine Opticon™ (MJ Research, Waltham, Mass.). To reduce non-specific signals, oligonucleotides amplifying small amplicons were designed using the MacVector software (Oxford Molecular Ltd.: primers sequences are available upon request). Amplifications were performed in 25 μl containing 0.5 μM of each primer,
0.5×SYBR Green I (Molecular Probes, Oreg.), and 2 μl of 5 fold diluted cDNA. Fifty PCR cycles were performed with a temperature profile consisting of 95° C. for 30 sec, 55° C. for 30 sec, 72° C. for 30 sec, and 79° C. for 5 sec. The dissociation curve of each PCR product was determined to ensure that the observed fluorescent signals were only from specific PCR products. After each PCR cycle, the fluorescent signals were detected at 79° C. to melt primer dimers (Tms of all primer dimers used in this study were <76° C.). A standard curve was constructed using plasmid DNAs containing the GAPDH gene (from 10^2 to 10^8 molecules). The fluorescent signals from specific PCR products were normalized against that of the β-actin gene, and then relative values were calculated by setting the normalized value of control as 1 (or 100 in some cases). All reactions were repeated using more than three independent samples.
as §1

ES cell-derived NP cells = experiment: siRNA knock down of Lmx1a and Lmx1b in ES cell-derived NP and ND stage cells
Description: For siRNA transfection, NP stage cells were treated with 50 ng/ml FGF8 and 100 ng/ml SHH for 4 days to induce/proliferate mDA NPs, followed by transfection with siRNA using the Nucleofector (Amaxa, Walkersville, Md.) mouse stem cell kit with the program A-033 according to the manufacturer's instruction. Per transfection, 5×10^6 NP cells were treated with 480 pmol of siRNA, diluted in 10 ml of N3bFGF media (or N3 media for ND stage transfection) and plated in PLO/FN-coated multiwell plate, resulting in a final siRNA concentration of 48 nM. For ND stage transfection, cells were further differentiated in N3 media for 2 days before transfection. Multiple Stealth siRNAs were purchased from Invitrogen (Carlsbad, Calif.), screened for gene silencing efficiency by cotransfection with Lmx1a or Lmx1b-expressing plasmids and only siRNAs showing efficient gene silencing (>95%) was used for the experiments. The sequences of the siRNAs are as follows: the Lmx1a sense strand […] (SEQ ID NO: 1); the Lmx1a antisense strand […] (SEQ ID NO: 2); the Lmx1b sense strand […] (SEQ ID NO: 3); the Lmx1b antisense strand […] (SEQ ID NO: 4). Thirty hours after transfection, cells were fixed for immunocytochemistry or harvested for RNA preparation.
To further study the redundant function between Lmx1a and Lmx1b, experiments were carried out to knock down these genes using gene-specific siRNA approach. ES cell-derived NP cells were treated with SHH and FGF8 for 4 days to induce/proliferate mDA NPs, and then transfected with control siRNA, Lmx1a siRNA, Lmx1b siRNA or both Lmx1a/1b siRNAs using Nucleofector (Amaxa) and analyzed after 30 hours. […] This insignificant effect is in contrast with the robust induction effect observed in overexpression experiment (FIG. 5A). This can be explained by incomplete knockdown by siRNA and/or nonphysiological overexpression effect caused by retroviral transduction. […] Since Pitx3^+ cells were not yet detectable at this NP stage, the gene knockdown experiment was repeated at ND stage cells.

[3] = NP cells, 500 ng/ml SHH or 1 μM cyclopamine
[4] = ND stage, 30 hrs after transfection
[5] = NP stage, 30 hours after transfection
[6] = NP stage, 30 hours after transfection, 48 nM siRNA

| Molecule | induction of Lmx1a gene expression by Wnt1 (SHH signaling [1]) | Lmx1a mRNA levels (SHH signaling [2]; [3]) | Nurr1 mRNA levels (SHH signaling [2]; [3]) | TH mRNA levels (SHH signaling [2]; [3]) | mRNA level of Gli1 (SHH signaling [2]; NP stage cells, 500 ng/ml SHH or μM Cyclopamine) | mRNA level of Lmx1a (ES cell-derived NP cells; [4]) | Nurr1 gene expression (ES cell-derived NP cells; [5]) | Wnt1 gene expression (ES cell-derived NP cells; [5]) | mRNA level of Lmx1a (ES cell-derived NP cells; [6]) | mRNA level of Lmx1b (ES cell-derived NP cells; [4]) | mRNA level of Lmx1b (ES cell-derived NP cells; [6]) |
| --- | --- | --- | --- | --- | --- | --- | --- | --- | --- | --- | --- |
| CC1=C2C[C@H]3[C@@H](CC=C4C[C@@H](O)CC[C@@]43C)[C@@H]2CC[C@]12O[C@@H]1C[C@H](C)CN[C@H]1[C@H]2C [cyclopamine] | not affected | no significant changes | no significant changes | no significant changes | reduced | – | – | – | – | – | – |
| Lmx1a siRNA: Stealth siRNA, sense GAGGAGAGCAUUCAAGGCCUCGUUU (SEQ ID NO: 1), antisense SEQ ID NO: 2 (antisense AAACGAGGCCUUGAAUGCUCUCCUC; Stealth modification, further chemistry not given here) | – | – | – | – | – | significantly reduced | did not have significant effect | did not have significant effect | significantly reduced | – | – |
| Lmx1b siRNA: Stealth siRNA, sense GGAACGACUCCAUCUUCCACGAUAU (SEQ ID NO: 3), antisense SEQ ID NO: 4 (antisense AUAUCGUGGAAGAUGGAGUCGUUCC; Stealth modification, further chemistry not given here) | – | – | – | – | – | – | did not have significant effect | did not have significant effect | – | significantly reduced | significantly reduced |
